Data from the SangsterLogP compilation.

How the values were obtained:
[1] = method code SF-AS, from DOI: 10.1021/je200827u; settings: pH 5.8

SMILES | logD [1] | logP
CCSc1nc2ccccc2n1CC | 3.43 | 
NNC(=O)c1ccnc(NN)c1 |  | -0.57
CCSc1nc2ccccc2[nH]1 | 2.67 | 
O=C(NN=C1CCCCC1)c1ccncc1 |  | 0.27
c1ccc(CSc2nc3ccccc3[nH]2)cc1 |  | 3.92
O=[N+]([O-])c1cc(CSc2nc3ccccc3[nH]2)cc([N+](=O)[O-])c1 | 3.14 | 
CC(=O)NNC(=O)c1ccncc1 |  | -0.87
c1ccc(C(Sc2nc3ccccc3[nH]2)c2ccccc2)cc1 |  | 4.9
O=C(NN=C1CCCC1)c1ccncc1 | 0.22 | 
CC(C)Sc1nc2ccccc2[nH]1 | 3.25 | 
CC1CCC(=NNC(=O)c2ccncc2)CC1 (stereo unspecified) | 0.74 | 
